In the NIST ThermoML archive (doi:10.1021/acs.jced.8b01174):
± gives the expanded uncertainty stated by the source.

Key:
[1] = wn = mass fraction of the nth substance listed; conditions: 97.7 kPa, Liquid, w2 = 0.874; for viscosity: Concentric cylinders viscometry; for mass density: Vibrating tube method
[2] = molar heat capacity at constant pressure; conditions: 100 kPa, Liquid, DSC
[3] = 97.7 kPa, Liquid; for viscosity: Concentric cylinders viscometry; for mass density: Vibrating tube method

C1CNCCN1 [piperazine] + CN(CCO)CCO
[1]
Conditions | mass density [kg/m3] | viscosity [mPa·s]
293.15 K | 1036 ± 3 | 150.46 ± 4.3
303.15 K | 1029 ± 3 | 79.46 ± 2.3
313.15 K | 1021 ± 3 | 45.07 ± 1.3
323.15 K | 1014 ± 3 | 27.24 ± 0.81
333.15 K | 1006 ± 3 | 17.41 ± 0.54
343.15 K | 999 ± 3 | 11.68 ± 0.4
353.15 K | 991 ± 3 | 8.18 ± 0.27
363.15 K | 983 ± 3 | 5.93 ± 0.2

O [water]
Conditions | mass density, [3] [kg/m3] | molar heat capacity at constant pressure, [2] [J/K/mol] | viscosity, [3] [mPa·s]
293.15 K | 998 ± 2 | – | 1 ± 0.02
298.15 K | – | 74.8 ± 3.5 | –
303.15 K | 996 ± 2 | – | 0.8 ± 0.02
308.15 K | – | 74.78 ± 3.5 | –
313.15 K | 992 ± 2 | – | 0.65 ± 0.02
318.15 K | – | 74.93 ± 3.5 | –
323.15 K | 988 ± 2 | – | 0.55 ± 0.02
328.15 K | – | 75.02 ± 3.5 | –
333.15 K | 983 ± 2 | – | 0.47 ± 0.02
338.15 K | – | 75.07 ± 3.5 | –
343.15 K | 978 ± 2 | – | 0.4 ± 0.02
348.15 K | – | 75.21 ± 3.6 | –
353.15 K | 972 ± 2 | – | 0.35 ± 0.02
363.15 K | 965 ± 2 | – | 0.31 ± 0.02
